Experimental data: ChEMBL document CHEMBL5241092, “The antibacterial activity of fluoroquinolone derivatives: An update (2018-2021)” (2021)
In brackets after ≈: the same amount, converted by molar mass.

Columns and labels:
Format in all cases: functional
Klebsiella pneumoniae = assay: Antibacterial activity against Klebsiella pneumoniae
Staphylococcus aureus = assay: Antibacterial activity against Staphylococcus aureus
Escherichia coli = assay: Antibacterial activity against Escherichia coli
Pseudomonas aeruginosa = assay: Antibacterial activity against Pseudomonas aeruginosa
[1] = system: Staphylococcus epidermidis; assay: Antibacterial activity against Staphylococcus epidermidis
Enterococcus faecalis = assay: Antibacterial activity against Enterococcus faecalis
Listeria monocytogenes = assay: Antibacterial activity against Listeria monocytogenes
[2] = system: Yersinia pseudotuberculosis; assay: Antibacterial activity against Yersinia pseudotuberculosis
[3] = system: Lactobacillus acidophilus; assay: Antibacterial activity against Lactobacillus acidophilus
Bacillus subtilis = assay: Antibacterial activity against Bacillus subtilis
Bacillus cereus = assay: Antibacterial activity against Bacillus cereus

Row | Compound | MIC (Klebsiella pneumoniae) | MIC (Staphylococcus aureus) | MIC (Escherichia coli) | MIC (Pseudomonas aeruginosa) | MIC90 (Staphylococcus aureus) | MIC90 [1] | MIC90 (Escherichia coli) | MIC90 (Pseudomonas aeruginosa) | MIC (Enterococcus faecalis) | MIC (Listeria monocytogenes) | MIC [2] | MIC [3] | MIC (Bacillus subtilis) | MIC (Bacillus cereus) | MIC [1]
1 | CCN1CCN(c2cc3c(cc2F)c(=O)c(C(=O)O)cn3CC)CC1 | 1.1 µg/mL (≈ 3.17 µM) | 1.1 µg/mL (≈ 3.17 µM) | 1.1 µg/mL (≈ 3.17 µM) | 1.1 µg/mL (≈ 3.17 µM) | – | – | – | – | – | – | – | – | – | – | –
2 | CC[C@H](C)[C@H](NC(=O)[C@H](CCCCN)NC(=O)[C@H](CCCCN)NC(=O)[C@H](C)NC(=O)[C@H](CC(C)C)NC(=O)[C@H](C)NC(=O)[C@H](C)NC(=O)[C@H](CC(C)C)NC(=O)[C@H](C)NC(=O)[C@H](CCCCN)NC(=O)[C@H](CC(C)C)NC(=O)[C@H](CC(N)=O)NC(=O)[C@@H](NC(=O)[C@H](CCCCN)NC(=O)CNC(=O)[C@H](CC(C)C)NC(=O)[C@H](CC(C)C)NC(=O)[C@H](Cc1ccc(O)cc1)NC(=O)CNC(=O)[C@H](C)NC(=O)CCSSCCC(=O)N1CCN(c2cc3c(cc2F)c(=O)c(C(=O)O)cn3C2CC2)CC1)[C@@H](C)CC)C(=O)N[C@@H](CC(C)C)C(N)=O | – | – | – | – | 0.025 µg/mL (≈ 0.0093 µM) | 0.025 µg/mL (≈ 0.0093 µM) | 0.025 µg/mL (≈ 0.0093 µM) | 0.025 µg/mL (≈ 0.0093 µM) | – | – | – | – | – | – | –
3 | COc1c(N2C[C@H]3CCCN(Cc4ccc(Cl)cc4)[C@H]3C2)c(F)cc2c(=O)c(C(=O)O)cn(C3CC3)c12 | < 2.39 µg/mL | < 2.39 µg/mL | < 2.39 µg/mL | < 2.39 µg/mL | – | – | – | – | < 2.39 µg/mL | < 2.39 µg/mL | < 2.39 µg/mL | < 2.39 µg/mL | – | – | –
4 | O=C(O)c1cn(C2CC2)c2cc(N3CCN(Cn4nc(-c5cccnc5)oc4=S)CC3)c(F)cc2c1=O | – | 0.031 µg/mL (≈ 0.0593 µM) | 0.031 µg/mL (≈ 0.0593 µM) | 0.031 µg/mL (≈ 0.0593 µM) | – | – | – | – | – | – | – | – | 0.031 µg/mL (≈ 0.0593 µM) | – | –
5 | COc1c(N2C[C@H]3CCCN(Cc4ccc(C)cc4)[C@H]3C2)c(F)cc2c(=O)c(C(=O)O)cn(C3CC3)c12 | < 2.39 µg/mL | < 2.39 µg/mL | < 2.39 µg/mL | < 2.39 µg/mL | – | – | – | – | < 2.39 µg/mL | < 2.39 µg/mL | < 2.39 µg/mL | < 2.39 µg/mL | – | – | –
6 | COc1c(N2C[C@H]3CCCN(Cc4ccccc4)[C@H]3C2)c(F)cc2c(=O)c(C(=O)O)cn(C3CC3)c12 | < 2.39 µg/mL | < 2.39 µg/mL | < 2.39 µg/mL | < 2.39 µg/mL | – | – | – | – | < 2.39 µg/mL | < 2.39 µg/mL | < 2.39 µg/mL | < 2.39 µg/mL | – | – | –
7 | COc1c(N2C[C@H]3CCCN(Cc4ccc([N+](=O)[O-])cc4)[C@H]3C2)c(F)cc2c(=O)c(C(=O)O)cn(C3CC3)c12 | < 2.39 µg/mL | < 2.39 µg/mL | < 2.39 µg/mL | < 2.39 µg/mL | – | – | – | – | < 2.39 µg/mL | < 2.39 µg/mL | < 2.39 µg/mL | < 2.39 µg/mL | – | – | –
8 | COc1c(N2C[C@H]3CCCN(C(=O)c4ccc(C)cc4)[C@H]3C2)c(F)cc2c(=O)c(C(=O)O)cn(C3CC3)c12 | < 1.23 µg/mL | ≤ 1.23 µg/mL | < 1.23 µg/mL | < 1.23 µg/mL | – | – | – | – | ≤ 1.23 µg/mL | ≤ 1.23 µg/mL | < 1.23 µg/mL | < 1.23 µg/mL | – | ≤ 1.23 µg/mL | –
9 | COc1c(N2C[C@H]3CCCN(S(=O)(=O)c4ccc(F)cc4)[C@H]3C2)c(F)cc2c(=O)c(C(=O)O)cn(C3CC3)c12 | < 2.42 µg/mL | < 2.42 µg/mL | < 2.42 µg/mL | < 2.42 µg/mL | – | – | – | – | < 2.42 µg/mL | < 2.42 µg/mL | < 2.42 µg/mL | < 2.42 µg/mL | – | – | –
10 | COc1c(N2C[C@H]3CCCN(C(=O)c4ccccc4)[C@H]3C2)c(F)cc2c(=O)c(C(=O)O)cn(C3CC3)c12 | < 1.23 µg/mL | < 1.23 µg/mL | < 1.23 µg/mL | < 1.23 µg/mL | – | – | – | – | < 1.23 µg/mL | < 1.23 µg/mL | < 1.23 µg/mL | < 1.23 µg/mL | – | < 1.23 µg/mL | –
11 | CCn1c(S)nnc1CN1CCN(c2cc3c(cc2F)c(=O)c(C(=O)O)cn3CC)CC1 | – | < 0.24 µg/mL | < 0.24 µg/mL | < 0.24 µg/mL | – | – | – | – | < 0.24 µg/mL | – | < 0.24 µg/mL | – | – | < 0.24 µg/mL | –
12 | COc1c(N2C[C@H]3CCCN(C(=O)c4ccc([N+](=O)[O-])cc4)[C@H]3C2)c(F)cc2c(=O)c(C(=O)O)cn(C3CC3)c12 | < 1.23 µg/mL | ≤ 1.23 µg/mL | < 1.23 µg/mL | < 1.23 µg/mL | – | – | – | – | ≤ 1.23 µg/mL | ≤ 1.23 µg/mL | < 1.23 µg/mL | < 1.23 µg/mL | – | ≤ 1.23 µg/mL | –
13 | COc1c(N2C[C@H]3CCCN(S(=O)(=O)c4ccc([N+](=O)[O-])cc4)[C@H]3C2)c(F)cc2c(=O)c(C(=O)O)cn(C3CC3)c12 | < 2.42 µg/mL | < 2.42 µg/mL | < 2.42 µg/mL | < 2.42 µg/mL | – | – | – | – | < 2.42 µg/mL | < 2.42 µg/mL | < 2.42 µg/mL | < 2.42 µg/mL | – | – | –
14 | COc1c(N2C[C@H]3CCCN(C(=O)c4ccc(Br)cc4)[C@H]3C2)c(F)cc2c(=O)c(C(=O)O)cn(C3CC3)c12 | < 1.23 µg/mL | ≤ 1.23 µg/mL | < 1.23 µg/mL | < 1.23 µg/mL | – | – | – | – | ≤ 1.23 µg/mL | ≤ 1.23 µg/mL | < 1.23 µg/mL | < 1.23 µg/mL | – | ≤ 1.23 µg/mL | –
15 | COc1c(N2C[C@H]3CCCN(C(=O)c4ccc(Cl)cc4)[C@H]3C2)c(F)cc2c(=O)c(C(=O)O)cn(C3CC3)c12 | < 1.23 µg/mL | ≤ 1.23 µg/mL | < 1.23 µg/mL | < 1.23 µg/mL | – | – | – | – | ≤ 1.23 µg/mL | ≤ 1.23 µg/mL | < 1.23 µg/mL | < 1.23 µg/mL | – | ≤ 1.23 µg/mL | –
16 | COc1c(N2CCN(/N=N/c3nc(C)cc(C)n3)CC2)c(F)cc2c(=O)c(C(=O)C(C(C)=O)C(C)=O)cn(C3CC3)c12 | – | 0.015 µg/mL (≈ 0.026 µM) | – | – | – | – | – | – | – | – | – | – | 0.015 µg/mL (≈ 0.026 µM) | – | 0.015 µg/mL (≈ 0.026 µM)
17 | COc1c(N2C[C@H]3CCCN(Cc4ccc(Br)cc4)[C@H]3C2)c(F)cc2c(=O)c(C(=O)O)cn(C3CC3)c12 | < 2.39 µg/mL | < 2.39 µg/mL | < 2.39 µg/mL | < 2.39 µg/mL | – | – | – | – | < 2.39 µg/mL | < 2.39 µg/mL | < 2.39 µg/mL | < 2.39 µg/mL | – | – | –
